# Read-outs that look alike come from different tables or passages of the source.
# What was measured:
# [1] = test system: normal spleen cells / splenic T-lymphocytes (Con-A stimulated); experiment: Con-A blastogenic response of normal spleen cells (3H-thymidine incorporation); assay type: cell-based, mouse (C57Bl/6); conditions: for Blastogenic response of normal spleen cells to Con-A: triplicates ± SD; for inhibition at 1 µg/mL / inhibition at 10 µg/mL / inhibition at 25 µg/mL / inhibition at 100 µg/mL / inhibition at 300 µg/mL / inhibition at 750 µg/mL: Mus musculus, T-lymphocyte, 72 h, percent change from no compound, read-out: Blastogenic response of normal spleen cells to Con-A, % effect
# Excerpt: A simple method is used to screen compounds for their ability to modulate T-lymphocyte activity which comprises assessing the capacity of the compounds to alter the activation of murine spleen cells in response to T-lymphocyte mitogen activators, such as concanavalin-A (Con-A). The method used to measure the effects of the compounds of the present invention on the blastogenic response of spleen cells to the T-lymphocyte mitogen, (i.e., Con-A), is as follows.
# Spleen cells were removed from normal C57Bl/6 mice and homogenized to obtain a single cell suspension. Erythrocytes were lysed by hypotonic shock. Upon determination of the viability and concentration of the remaining lymphoid cells, they were adjusted to a concentration of 4×10^6 /ml. These spleen cells (2×10^5 cells per […]) were seeded into wells of microtiter plates with the compounds of the present invention having the following dose concentrations:
# Con-A was also added to these cultures at a final concentration of […]. These cells were cultured for 3 days at 37° C. in a humidified atmosphere of 5% CO2 in air. For the last 18 hours of culture, […] H-thymidine was added to each well. The cells were then precipitated by a multichannel harvester. The amount of ^3 H-thymidine incorporated by the cultured cells were measured in a liquid scintillation counter (Disintegrations per min., DPM). All assays were conducted in triplicate.
# The incubation medium used for the blastogenesis assays was RPMI-1640 medium containing 10% fetal bovine serum, […] streptomycin, 100 U/ml penicillin, […] Hepes buffer solution, 5×10^-5 M 2-mercaptoethanol and 2 mM glutamine.
# (§1) ^a Experimental compounds were first suspended in DMSO or ethanol,
# ^b The effect of experimental compounds on the blastogenic response o
# [2] = test system: BUD-8 skin cell fibroblasts; experiment: Proliferation of BUD-8 skin cell fibroblasts (3H-thymidine uptake); assay type: cell-based, human; conditions: for 3H-Thymidine uptake by BUD-8 skin cells: triplicates ± SD
# Procedure: The human skin cell fibroblast line, BUD-8, was originally derived from the normal skin of a person and can now be obtained from the American Type Culture Collection.
# The number of BUD-8 cells was expanded for use by culture in 25 cm^2 flasks at 37° C. in an atmosphere of 5% CO2 in air. At approximately 4-5 five day intervals, or when confluence was reached, the cells were passaged. This was accomplished by detaching the cells with a Teflon scraper, washing and reseeding the cells at a lower density into fresh tissue culture flasks.
# The effect of these compound on the proliferative capacity of human BUD-8 skin fibroblasts was measured with the use of a ^3 H-thymidine incorporation assay using culture conditions which were similar to those used for the Con-A blastogenesis assay, described previously. Cultured skin cells were detached from the surface of tissue culture flasks mechanically with a Teflon scraper. The cells were washed, resuspended in incubation medium and the viabilities were determined. These cells were then plated in triplicate at a density of 2×10^3 cells/0.1 ml/microtiter well for the proliferation assays. […] Eighteen hours later, each of the BUD-8 cultures was examined morphologically for evidence of compound-induced toxicity such as cell rounding or granularity. The thymidine-pulsed cells were then precipitated and the amount of ^3 H-thymidine incorporation was counted in a liquid scintillation counter. […]
# as §1
# ^b The effect of experimental compounds on the proliferation of BUD8
# [3] = test system: leukotriene B4 (LTB4) secretion by BUD-8 skin cell fibroblasts; experiment: Secretion of LTB4 by BUD-8 skin cell fibroblasts (radioimmunoassay); assay type: cell-based, human; conditions: for LTB4 in supernatant of BUD-8 skin cells: triplicate ± SD
# Procedure: Levels of LTB4 in aliquots of BUD-8 skin cell cultures supernatants were quantified by radioimmunoassay. The cells were first plated in triplicate at a density of 1×10^4 cells/0.1 ml/microtiter well for the assay to quantitate LTB4. To these cells was added 0.1 ml incubation medium containing compound 80182, or nordihydroguaiaretic acid (NDGA) to inhibit leukotriene production. After 18 hours of culture, samples of the BUD-8 skin cell supernatants were collected from one set of microtiter plates and frozen until assayed for LTB4 content using a radioimmunoassay. Into a polypropylene tube were mixed 0.1 ml anti-LTB4, 0.1 ml^3 H-LTB4 and 0.1 ml LTB4 standard or LTB4 containing sample. The BUD-8 skin cell culture supernatants were used directly in the radioimmunoassay. The tubes were refrigerated overnight. A charcoal solution (0.5 ml of 0.5% charcoal Norit A) was added and each tube was centrifuged. The radio activity in the supernatant was then counted in a liquid scintillation counter. | ^a Experimental compounds were first suspended in DMSO or ethanol, | ^b The effect of experimental compounds on the amount of LTB4 in […]
# [4] = Con-A 1 ug/ml, compound 1 ug/ml
# [5] = Con-A 1 ug/ml, compound 10 ug/ml
# [6] = Con-A 1 ug/ml, compound 25 ug/ml
# [7] = Con-A 1 ug/ml, compound 100 ug/ml
# [8] = Con-A 1 ug/ml, compound 300 ug/ml
# [9] = Con-A 1 ug/ml, compound 750 ug/ml
# [10] = Con-A 4 ug/ml, compound 1 ug/ml
# [11] = Con-A 4 ug/ml, compound 10 ug/ml
# [12] = Con-A 4 ug/ml, compound 25 ug/ml
# [13] = Con-A 4 ug/ml, compound 100 ug/ml
# [14] = Con-A 4 ug/ml, compound 300 ug/ml
# [15] = Con-A 4 ug/ml, compound 750 ug/ml
smiles,measurement,setting,value
"CCCCCCCCCCCNCC(O)C1OC2OC(C)(C)OC2C1O [Ex. 2, 1,2-O-Isopropylidene-6-deoxy-6-aminoundecyl-α, D-glucofuranose]",Blastogenic response of normal spleen cells to Con-A,[1]; [4],"13,581 ± 4,804 cpm"
same,Blastogenic response of normal spleen cells to Con-A,[1]; [5],"5,014 ± 89 cpm"
same,Blastogenic response of normal spleen cells to Con-A,[1]; [6],"3,312 ± 1,541 cpm"
same,Blastogenic response of normal spleen cells to Con-A,[1]; [7],"2,967 ± 964 cpm"
same,Blastogenic response of normal spleen cells to Con-A,[1]; [8],"2,934 ± 299 cpm"
same,Blastogenic response of normal spleen cells to Con-A,[1]; [9],"2,020 ± 651 cpm"
same,Blastogenic response of normal spleen cells to Con-A,[1]; [10],"18,607 ± 8,159 cpm"
same,Blastogenic response of normal spleen cells to Con-A,[1]; [11],"4,293 ± 3,517 cpm"
same,Blastogenic response of normal spleen cells to Con-A,[1]; [12],"1,635 ± 635 cpm"
same,Blastogenic response of normal spleen cells to Con-A,[1]; [13],"2,618 ± 444 cpm"
same,Blastogenic response of normal spleen cells to Con-A,[1]; [14],"2,787 ± 413 cpm"
same,Blastogenic response of normal spleen cells to Con-A,[1]; [15],"1,575 ± 480 cpm"
same,inhibition at 1 µg/mL,[1]; [4],81%
same,inhibition at 10 µg/mL,[1]; [5],93%
same,inhibition at 25 µg/mL,[1]; [6],95%
same,inhibition at 100 µg/mL,[1]; [7],96%
same,inhibition at 300 µg/mL,[1]; [8],96%
same,inhibition at 750 µg/mL,[1]; [9],97%
same,inhibition at 1 µg/mL,[1]; [10],81%
same,inhibition at 10 µg/mL,[1]; [11],96%
same,inhibition at 25 µg/mL,[1]; [12],98%
same,inhibition at 100 µg/mL,[1]; [13],97%
same,inhibition at 300 µg/mL,[1]; [14],97%
same,inhibition at 750 µg/mL,[1]; [15],98%
same,anti-proliferative effect on skin cells,[2],anti-proliferative effect that was statistically significant
same,inhibition at 1 µg/mL,"[2]; Homo sapiens, Fibroblast, compound 1 ug/ml, percent change from no compound, read-out: 3H-Thymidine uptake by BUD-8 skin cells, % effect",1%
same,inhibition at 10 µg/mL,"[2]; Homo sapiens, Fibroblast, compound 10 ug/ml, percent change from no compound, read-out: 3H-Thymidine uptake by BUD-8 skin cells, % effect",46%
same,inhibition at 25 µg/mL,"[2]; Homo sapiens, Fibroblast, compound 25 ug/ml, percent change from no compound, read-out: 3H-Thymidine uptake by BUD-8 skin cells, % effect",77%
same,inhibition at 100 µg/mL,"[2]; Homo sapiens, Fibroblast, compound 100 ug/ml, percent change from no compound, read-out: 3H-Thymidine uptake by BUD-8 skin cells, % effect",89%
same,inhibition at 300 µg/mL,"[2]; Homo sapiens, Fibroblast, compound 300 ug/ml, percent change from no compound, read-out: 3H-Thymidine uptake by BUD-8 skin cells, % effect",90%
same,inhibition at 750 µg/mL,"[2]; Homo sapiens, Fibroblast, compound 750 ug/ml, percent change from no compound, read-out: 3H-Thymidine uptake by BUD-8 skin cells, % effect",85%
same,3H-Thymidine uptake by BUD-8 skin cells,[2]; compound 1 ug/ml,"6,069 ± 636 cpm"
same,3H-Thymidine uptake by BUD-8 skin cells,[2]; compound 10 ug/ml,"3,363 ± 227 cpm"
same,3H-Thymidine uptake by BUD-8 skin cells,[2]; compound 25 ug/ml,"1,430 ± 1,176 cpm"
same,3H-Thymidine uptake by BUD-8 skin cells,[2]; compound 100 ug/ml,649 ± 114 cpm
same,3H-Thymidine uptake by BUD-8 skin cells,[2]; compound 300 ug/ml,595 ± 110 cpm
same,3H-Thymidine uptake by BUD-8 skin cells,[2]; compound 750 ug/ml,911 ± 863 cpm
same,effect on LTB4 secretion / activity,[3],produced an effect upon the secretion of leukotriene B4
same,inhibition at 1 µg/mL,"[3]; Homo sapiens, Fibroblast, 18 h, compound 1 ug/ml, percent change from no compound, read-out: LTB4 secretion, % Effect",-15%
same,inhibition at 10 µg/mL,"[3]; Homo sapiens, Fibroblast, 18 h, compound 10 ug/ml, percent change from no compound, read-out: LTB4 secretion, % Effect",37%
same,inhibition at 25 µg/mL,"[3]; Homo sapiens, Fibroblast, 18 h, compound 25 ug/ml, percent change from no compound, read-out: LTB4 secretion, % Effect",58%
same,inhibition at 100 µg/mL,"[3]; Homo sapiens, Fibroblast, 18 h, compound 100 ug/ml, percent change from no compound, read-out: LTB4 secretion, % Effect",22%
same,inhibition at 300 µg/mL,"[3]; Homo sapiens, Fibroblast, 18 h, compound 300 ug/ml, percent change from no compound, read-out: LTB4 secretion, % Effect",60%
same,inhibition at 750 µg/mL,"[3]; Homo sapiens, Fibroblast, 18 h, compound 750 ug/ml, percent change from no compound, read-out: LTB4 secretion, % Effect",42%
same,calculated LTB4 secreted/10^5 BUD-8 cells,[3]; compound 1 ug/ml,862 pg LTB4 per 10^5 cells
same,LTB4 in supernatant of BUD-8 skin cells,[3]; compound 1 ug/ml,44.4 ± 3.8 pg LTB4 /100 ul supernatant
same,calculated LTB4 secreted/10^5 BUD-8 cells,[3]; compound 10 ug/ml,485 pg LTB4 per 10^5 cells
same,LTB4 in supernatant of BUD-8 skin cells,[3]; compound 10 ug/ml,24.6 ± 5.3 pg LTB4 /100 ul supernatant
same,calculated LTB4 secreted/10^5 BUD-8 cells,[3]; compound 25 ug/ml,303 pg LTB4 per 10^5 cells
same,LTB4 in supernatant of BUD-8 skin cells,[3]; compound 25 ug/ml,16.4 ± 2.0 pg LTB4 /100 ul supernatant
same,calculated LTB4 secreted/10^5 BUD-8 cells,[3]; compound 100 ug/ml,575 pg LTB4 per 10^5 cells
same,LTB4 in supernatant of BUD-8 skin cells,[3]; compound 100 ug/ml,30.1 ± 3.9 pg LTB4 /100 ul supernatant
same,calculated LTB4 secreted/10^5 BUD-8 cells,[3]; compound 300 ug/ml,281 pg LTB4 per 10^5 cells
same,LTB4 in supernatant of BUD-8 skin cells,[3]; compound 300 ug/ml,15.3 ± 1.1 pg LTB4 /100 ul supernatant
same,calculated LTB4 secreted/10^5 BUD-8 cells,[3]; compound 750 ug/ml,422 pg LTB4 per 10^5 cells
same,LTB4 in supernatant of BUD-8 skin cells,[3]; compound 750 ug/ml,22.4 ± 4.2 pg LTB4 /100 ul supernatant
